Assay results taken from the supplement of paper PMC5908809.

Tests used:
KAI3 (IL-2 2.5 ng/mL) [1] = assay: drug sensitivity score (DSS) (DSS units); higher = more sensitive; extreme values may be limits of the assay; conditions: 72 h
[2] = tested on: normal primary NK cells, pool 1 (3 donors), resting (IL-2 0 ng/mL); assay: as above; conditions: 72 h
[3] = tested on: normal primary NK cells, pool 1 (3 donors) (IL-2 2.5 ng/mL); assay: as above; conditions: 72 h
[4] = tested on: normal primary NK cells, pool 2 (3 donors) (IL-2 2.5 ng/mL); assay: as above; conditions: 72 h
IMC-1 (IL-2 20 ng/mL) [5] = assay: as above; conditions: 72 h
[6] = tested on: normal primary NK cells, pool 3 (3 donors) (IL-2 2.5 ng/mL); assay: as above; conditions: 72 h
NK-YS (IL-2 2.5 ng/mL) [7] = assay: as above; conditions: 72 h
YT (IL-2 2.5 ng/mL) [8] = assay: as above; conditions: 72 h
NK-92 (IL-2 2.5 ng/mL) [9] = assay: as above; conditions: 72 h
KHYG-1 (IL-2 2.5 ng/mL) [10] = assay: as above; conditions: 72 h
NKL (IL-2 2.5 ng/mL) [11] = assay: as above; conditions: 72 h
DERL-7 (IL-2 2.5 ng/mL) [12] = assay: as above; conditions: 72 h
SNK-6 (IL-2 2.5 ng/mL) [13] = assay: as above; conditions: 72 h
[14] = tested on: normal NK cells expanded with K562-aAPC; assay: as above; conditions: 72 h; IL-2 2.5 ng/mL
Method: (§1)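 Drug sensitivity and resistance testing on K562-aAPC-expanded normal NK cells: 5 concentrations (10-fold steps over a 10,000-fold range), 72 h at 37 °C, viability by CellTiter-Glo normalised to DMSO and benzethonium chloride controls; DSS from the fitted curve.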

KAI3 (IL-2 2.5 ng/mL) [15] = assay: percent inhibition of viability; higher = more inhibition; conditions: 72 h
[16] = tested on: normal primary NK cells, pool 1 (3 donors), resting (IL-2 0 ng/mL); assay: as above; conditions: 72 h
[17] = tested on: normal primary NK cells, pool 1 (3 donors) (IL-2 2.5 ng/mL); assay: as above; conditions: 72 h
[18] = tested on: normal primary NK cells, pool 2 (3 donors) (IL-2 2.5 ng/mL); assay: as above; conditions: 72 h
IMC-1 (IL-2 20 ng/mL) [19] = assay: as above; conditions: 72 h
[20] = tested on: normal primary NK cells, pool 3 (3 donors) (IL-2 2.5 ng/mL); assay: as above; conditions: 72 h
NK-YS (IL-2 2.5 ng/mL) [21] = assay: as above; conditions: 72 h
YT (IL-2 2.5 ng/mL) [22] = assay: as above; conditions: 72 h
NK-92 (IL-2 2.5 ng/mL) [23] = assay: as above; conditions: 72 h
KHYG-1 (IL-2 2.5 ng/mL) [24] = assay: as above; conditions: 72 h
NKL (IL-2 2.5 ng/mL) [25] = assay: as above; conditions: 72 h
DERL-7 (IL-2 2.5 ng/mL) [26] = assay: as above; conditions: 72 h
SNK-6 (IL-2 2.5 ng/mL) [27] = assay: as above; conditions: 72 h
[28] = tested on: normal NK cells expanded with K562-aAPC; assay: as above; conditions: 72 h, IL-2 2.5 ng/mL
Method: as §1

CN(C)C/C=C/C(=O)Nc1cc2c(Nc3ccc(F)c(Cl)c3)ncnc2cc1O[C@H]1CCOC1 [Afatinib] (max concentration tested 1000 nM)
drug sensitivity score (KAI3 (IL-2 2.5 ng/mL) [1]): 0.41 | drug sensitivity score [2]: 0.88 | drug sensitivity score [3]: 0.16 | drug sensitivity score [4]: 0.29 | drug sensitivity score (IMC-1 (IL-2 20 ng/mL) [5]): 0 | drug sensitivity score [6]: 0 | drug sensitivity score (NK-YS (IL-2 2.5 ng/mL) [7]): 0.66 | drug sensitivity score (YT (IL-2 2.5 ng/mL) [8]): 2.06 | drug sensitivity score (NK-92 (IL-2 2.5 ng/mL) [9]): 1.32 | drug sensitivity score (KHYG-1 (IL-2 2.5 ng/mL) [10]): 0 | drug sensitivity score (NKL (IL-2 2.5 ng/mL) [11]): 3.07 | drug sensitivity score (DERL-7 (IL-2 2.5 ng/mL) [12]): 2.57 | drug sensitivity score (SNK-6 (IL-2 2.5 ng/mL) [13]): 0 | drug sensitivity score [14]: 1.97 | percent inhibition of viability (KAI3 (IL-2 2.5 ng/mL) [15]; 0.1 nM): -6.04% | percent inhibition of viability (KAI3 (IL-2 2.5 ng/mL) [15]; 1 nM): -6.37% | percent inhibition of viability (KAI3 (IL-2 2.5 ng/mL) [15]; 10 nM): -2.67% | percent inhibition of viability (KAI3 (IL-2 2.5 ng/mL) [15]; 100 nM): -0.11% | percent inhibition of viability (KAI3 (IL-2 2.5 ng/mL) [15]; 1000 nM): 17.7% | percent inhibition of viability ([16]; 0.1 nM): 1.52% | percent inhibition of viability ([16]; 1 nM): -21.3% | percent inhibition of viability ([16]; 10 nM): -1.76% | percent inhibition of viability ([16]; 100 nM): -18.2% | percent inhibition of viability ([16]; 1000 nM): 31.8% | percent inhibition of viability ([17]; 0.1 nM): 0.9% | percent inhibition of viability ([17]; 1 nM): -20.4% | percent inhibition of viability ([17]; 10 nM): -8.14% | percent inhibition of viability ([17]; 100 nM): -16.9% | percent inhibition of viability ([17]; 1000 nM): 17.6% | percent inhibition of viability ([18]; 0.1 nM): -9.45% | percent inhibition of viability ([18]; 1 nM): -8.4% | percent inhibition of viability ([18]; 10 nM): 7.17% | percent inhibition of viability ([18]; 100 nM): -5.73% | percent inhibition of viability ([18]; 1000 nM): 18.4% | percent inhibition of viability (IMC-1 (IL-2 20 ng/mL) [19]; 0.1 nM): -4.64% | percent inhibition of viability (IMC-1 (IL-2 20 ng/mL) [19]; 1 nM): 0.23% | percent inhibition of viability (IMC-1 (IL-2 20 ng/mL) [19]; 10 nM): 3.73% | percent inhibition of viability (IMC-1 (IL-2 20 ng/mL) [19]; 100 nM): 0.77% | percent inhibition of viability (IMC-1 (IL-2 20 ng/mL) [19]; 1000 nM): -7.53% | percent inhibition of viability ([20]; 0.1 nM): -7.17% | percent inhibition of viability ([20]; 1 nM): -9.3% | percent inhibition of viability ([20]; 10 nM): 9.58% | percent inhibition of viability ([20]; 100 nM): -8.16% | percent inhibition of viability ([20]; 1000 nM): 3.09% | percent inhibition of viability (NK-YS (IL-2 2.5 ng/mL) [21]; 0.1 nM): -6.74% | percent inhibition of viability (NK-YS (IL-2 2.5 ng/mL) [21]; 1 nM): -1.03% | percent inhibition of viability (NK-YS (IL-2 2.5 ng/mL) [21]; 10 nM): -0.59% | percent inhibition of viability (NK-YS (IL-2 2.5 ng/mL) [21]; 100 nM): 1.9% | percent inhibition of viability (NK-YS (IL-2 2.5 ng/mL) [21]; 1000 nM): 17.9% | percent inhibition of viability (YT (IL-2 2.5 ng/mL) [22]; 0.1 nM): 0.42% | percent inhibition of viability (YT (IL-2 2.5 ng/mL) [22]; 1 nM): 0.78% | percent inhibition of viability (YT (IL-2 2.5 ng/mL) [22]; 10 nM): 2.66% | percent inhibition of viability (YT (IL-2 2.5 ng/mL) [22]; 100 nM): 5.09% | percent inhibition of viability (YT (IL-2 2.5 ng/mL) [22]; 1000 nM): 29.2% | percent inhibition of viability (NK-92 (IL-2 2.5 ng/mL) [23]; 0.1 nM): -4.74% | percent inhibition of viability (NK-92 (IL-2 2.5 ng/mL) [23]; 1 nM): -8.88% | percent inhibition of viability (NK-92 (IL-2 2.5 ng/mL) [23]; 10 nM): -4.7% | percent inhibition of viability (NK-92 (IL-2 2.5 ng/mL) [23]; 100 nM): 6.1% | percent inhibition of viability (NK-92 (IL-2 2.5 ng/mL) [23]; 1000 nM): 20% | percent inhibition of viability (KHYG-1 (IL-2 2.5 ng/mL) [24]; 0.1 nM): 1.25% | percent inhibition of viability (KHYG-1 (IL-2 2.5 ng/mL) [24]; 1 nM): 0.47% | percent inhibition of viability (KHYG-1 (IL-2 2.5 ng/mL) [24]; 10 nM): 0.09% | percent inhibition of viability (KHYG-1 (IL-2 2.5 ng/mL) [24]; 100 nM): 5.88% | percent inhibition of viability (KHYG-1 (IL-2 2.5 ng/mL) [24]; 1000 nM): 8.01% | percent inhibition of viability (NKL (IL-2 2.5 ng/mL) [25]; 0.1 nM): 4.2% | percent inhibition of viability (NKL (IL-2 2.5 ng/mL) [25]; 1 nM): 5.29% | percent inhibition of viability (NKL (IL-2 2.5 ng/mL) [25]; 10 nM): 8.09% | percent inhibition of viability (NKL (IL-2 2.5 ng/mL) [25]; 100 nM): 15.9% | percent inhibition of viability (NKL (IL-2 2.5 ng/mL) [25]; 1000 nM): 30.1% | percent inhibition of viability (DERL-7 (IL-2 2.5 ng/mL) [26]; 0.1 nM): 1.24% | percent inhibition of viability (DERL-7 (IL-2 2.5 ng/mL) [26]; 1 nM): -0.84% | percent inhibition of viability (DERL-7 (IL-2 2.5 ng/mL) [26]; 10 nM): 3.12% | percent inhibition of viability (DERL-7 (IL-2 2.5 ng/mL) [26]; 100 nM): 3.53% | percent inhibition of viability (DERL-7 (IL-2 2.5 ng/mL) [26]; 1000 nM): 40.4% | percent inhibition of viability (SNK-6 (IL-2 2.5 ng/mL) [27]; 0.1 nM): 5.26% | percent inhibition of viability (SNK-6 (IL-2 2.5 ng/mL) [27]; 1 nM): 23.4% | percent inhibition of viability (SNK-6 (IL-2 2.5 ng/mL) [27]; 10 nM): 23.4% | percent inhibition of viability (SNK-6 (IL-2 2.5 ng/mL) [27]; 100 nM): 27.9% | percent inhibition of viability (SNK-6 (IL-2 2.5 ng/mL) [27]; 1000 nM): -1.27% | percent inhibition of viability ([28]; 0.1 nM): -3.84% | percent inhibition of viability ([28]; 1 nM): -0.9% | percent inhibition of viability ([28]; 10 nM): 0.35% | percent inhibition of viability ([28]; 100 nM): 8.86% | percent inhibition of viability ([28]; 1000 nM): 23.9%
